The source of these data is patent US20260216169A1, “NAPHTHYLAMIDE COMPOUND, AND PREPARATION METHOD THEREFOR AND USE THEREOF” (SHENZHEN CHIPSCREEN BIOSCIENCES CO., LTD., priority 2022, published 2026).

Structures are written as SMILES. pIC50: −log10 of the molar value.

Data set [1] in a line: Brain permeation assay in mice. It counts as in vivo. The conditions noted are these: B/C, mouse, oral; female mice, 5 mg/kg intragastric, 4 h after administration; read-out: Brain permeation (ratio of compound concentration in brain tissue to concentration in plasma). As to the method:
The objective of this example was to test whether the compounds of the present disclosure are able to cross the blood-brain barrier (BBB). The compounds of the present disclosure were dissolved in a vehicle containing 5% dimethyl sulfoxide, 60% 1,3-propanediol, and 35% purified water, and intragastrically administered to B/C female mice aged 6 weeks (purchased from Guangdong Medical Laboratory Animal Center) at 5 mg/kg. The animals were sacrificed 4 h after the administration, and blood and brain tissue samples were collected. The blood samples were anticoagulated with K2-EDTA and centrifuged at 5000 rpm for 5 min to separate plasma. The brain tissue samples were accurately weighed and homogenized with a certain amount of phosphate-buffered saline (PBS) solution, and the biological samples were stored at −80° C. before analysis. After sample extraction, the compound concentration was determined using a liquid chromatography-tandem mass spectrometry (LC-MS/MS) system. Brain permeation was defined as the ratio of the compound concentration in brain tissue to the concentration in plasma.

In another data set the target is Aurora B kinase (Homo sapiens, UniProt Q96GD4). The data set is described as follows: HTRF KinEASE test of inhibitory activity against Aurora B kinase. The format is biochemical. Also on record: purchased Carna 05-102. Conditions: Carna kinase, substrate S2. On the procedure: (§1) Preparation of working solutions of compounds in DMSO with gradient concentrations: 0.2 mM solutions of the compounds in DMSO were prepared and serially diluted with DMSO to form working solutions with 10 gradient concentrations (corresponding to final compound concentrations of 1000 nM, 300 nM, 100 nM, 30 nM, 10 nM, 3 nM, 1 nM, 0.3 nM, 0.1 nM, and 0.03 nM in the reaction system).
Aurora B kinase, sequence (Q96GD4 whole entry): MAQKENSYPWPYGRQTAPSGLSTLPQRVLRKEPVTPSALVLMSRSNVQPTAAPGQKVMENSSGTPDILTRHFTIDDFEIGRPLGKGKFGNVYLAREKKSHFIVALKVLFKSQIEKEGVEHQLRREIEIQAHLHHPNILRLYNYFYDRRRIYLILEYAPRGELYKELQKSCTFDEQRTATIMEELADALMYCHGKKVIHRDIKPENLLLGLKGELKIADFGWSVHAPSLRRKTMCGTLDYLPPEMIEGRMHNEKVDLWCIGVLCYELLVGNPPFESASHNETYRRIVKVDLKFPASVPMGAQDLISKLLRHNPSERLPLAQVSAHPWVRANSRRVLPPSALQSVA
Aurora B kinase, sequence (Q9NQS7 803-916 partner limits assumed): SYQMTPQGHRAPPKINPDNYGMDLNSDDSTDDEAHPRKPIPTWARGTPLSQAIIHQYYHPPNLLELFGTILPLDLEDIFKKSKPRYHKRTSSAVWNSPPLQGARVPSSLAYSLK
(§2) Tests of inhibitory activity against Aurora B kinase and VEGFR2: The half maximal inhibitory concentrations (IC50) of the compounds against Aurora B kinase and VEGFR2 were determined using HTRF KinEASE-TK kit (Cisbio, Cat #62TKOPEC) and HTRF KinEASE-STK kit (Cisbio, Cat #61ST2BLE). A 2× kinase & Metal solution (Aurora B/Cat #05-102 and VEGFR2/Cat #08-191, both purchased from Carna) and a 2× Substrate & ATP solution (for Aurora B and VEGFR2, substrates S2 and TK were used, respectively) were prepared according to the kit instructions. The working solutions of the test compounds with gradient concentrations were added to a 384-well plate at 25 nL/well, and 2.5 μL of the 2× kinase & Metal solution was added to each well. The plate was sealed with a plate-sealing film, well shaken, centrifuged, and then incubated at 25° C. for 10 min. Then, the 2× Substrate & ATP solution was added at 2.5 μL/well, and the plate was incubated again at 25° C. for 30 min. Finally, a 2× XL665 & Antibody kinase detection reaction solution was added at 5 μL/well. After the plate was incubated at 25° C. for 60 min, the fluorescence signals at wavelengths of 665 nm and 620 nm in each well were measured by a microplate reader.
(§3) The 665 nm/620 nm fluorescence signal ratio (X) of each well was calculated. With the compound-free well as a negative control (Y) and the enzyme-free well as a positive control (Z), the inhibition rate of the compound in each test well against the corresponding kinase was calculated using the formula: inhibition (%)=100%−(X−Z)/(Y−Z)×100%, and the half maximal inhibitory concentration (IC50) of each compound against the corresponding kinase was calculated by GraphPad 7.0 software.
On the technique in general: In TR-FRET formats the signal depends on donor and acceptor labels being close together.

The target in a further data set is T1, VEGFR2 (Homo sapiens, UniProt P35968).
T1 construct: purchased Carna 08-191
T1 sequence (P35968 790-1356 limits assumed): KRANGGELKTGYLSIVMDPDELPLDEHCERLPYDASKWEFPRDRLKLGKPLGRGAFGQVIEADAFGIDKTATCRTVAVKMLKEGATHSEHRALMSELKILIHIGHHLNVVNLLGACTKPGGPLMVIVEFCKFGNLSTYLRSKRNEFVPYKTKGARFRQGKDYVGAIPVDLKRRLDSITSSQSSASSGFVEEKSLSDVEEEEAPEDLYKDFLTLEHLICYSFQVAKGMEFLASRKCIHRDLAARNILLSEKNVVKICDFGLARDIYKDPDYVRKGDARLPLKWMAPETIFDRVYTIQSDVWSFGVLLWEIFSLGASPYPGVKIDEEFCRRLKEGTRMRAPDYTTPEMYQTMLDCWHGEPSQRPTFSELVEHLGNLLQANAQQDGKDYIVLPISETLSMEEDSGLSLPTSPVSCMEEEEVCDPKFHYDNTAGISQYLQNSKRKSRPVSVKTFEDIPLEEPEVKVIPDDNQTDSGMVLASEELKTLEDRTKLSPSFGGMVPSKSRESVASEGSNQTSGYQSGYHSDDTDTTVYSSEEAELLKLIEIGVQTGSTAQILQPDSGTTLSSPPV
The data set is described as follows: HTRF KinEASE test against VEGFR2, reported as relative selectivity IC50-VEGFR2/IC50-Aurora B. It counts as biochemical. The conditions noted are these: ratio of IC50 against VEGFR2 to IC50 against Aurora B. As to the method:
as §1, §2, §3

A further data set concerns Molt-4 cells. The data set is described as follows: Effects on tumor cell cycle, PI staining and flow cytometry. It counts as cell-based, human. The conditions noted are these: 48 h. An excerpt: When the activity of Aurora B kinase is inhibited in tumor cells, the arrangement and separation of chromosomes are blocked, leading to cytokinesis failure and the formation of tetraploid or polyploid cells. Moreover, severe genomic instability and mitotic catastrophe result in apoptosis. The intracellular DNA content can be mapped with propidium iodide (PI), a fluorescent dye that specifically binds to nucleic acid, so that cell states can be distinguished into sub-G0/G1 (apoptosis), G0/G1, S, G2/M (tetraploid), and polyploid states.
Experimental process: Molt-4 cells (human acute lymphoblastic leukemia cells, CRL-1582) were purchased from the American Type Culture Collection (ATCC). Molt-4 cells in the logarithmic growth phase were collected from suspension culture and counted. The cells were seeded into a 6-well plate at 10^6 cells/well and cultured overnight under normal conditions. The test compounds were prepared as 1 mM and 3 mM solutions in DMSO, and the solutions in DMSO were diluted 50-fold with culture medium. Finally, the above solutions were added to the culture system in a volume ratio of 1:19, achieving a final compound concentration of 1 μM or 3 μM in each well. After 48 h of incubation, the cells were collected by centrifugation. Each cell sample was resuspended in 300 μL of PBS, and the suspension was added dropwise to 700 μL of pre-cooled absolute ethanol. Then the mixture was gently inverted several times for thorough mixing to complete cell collection and fixation. The samples were left to stand at 4° C. for more than 12 h and then analyzed by flow cytometry.
A working dye solution was prepared by homogeneously mixing PBS, a 10 mg/mL PI stock solution, and a 10 mg/mL RNase A solution in a ratio of 1000:5:2. The fixed cell samples were centrifuged at 4° C. and 1000 rpm for 10 min. The supernatants were completely removed using a pipette, and the cells were washed twice with PBS and resuspended in the above working dye solution at […]. After incubation in a dark place at 37° C. for 30 min, the cells were filtered using a 200-mesh stainless steel strainer, and the filtrate was loaded onto a flow cytometer for cell cycle analysis (10,000 cells counted per sample).
Histograms showing DNA contents were obtained from the flow cytometry analysis, and the cell cycle distribution in each sample was analyzed using the flow cytometry data analysis software FlowJo. The mean (X) and standard deviation (SD) were calculated, and data were represented as X±SD. The apoptosis and the proportions of tetraploid and polyploid cells after Molt-4 cells were treated with different doses of the test compounds are shown in Table 3 below.
(In general: A flow cytometer gives signals particle by particle.)

The pIC50 is the negative decadic logarithm of the IC50, by convention in mol/L.

For the molecule `CCOc1ccc2c(Oc3ccc4c(C(=O)Nc5ccccc5N)cccc4c3)ccnc2c1` [Compound I-1], the Kp at 4 h in data set [1] amounted to 0.73.
`CCOc1ccc2c(Oc3ccc4c(C(=O)Nc5ccc(F)cc5N)cccc4c3)ccnc2c1` [Compound I-5] had a pIC50 at Aurora B kinase of 8.55. Moreover, on VEGFR2, the “Selectivity for Aurora B IC50-VEGFR2/IC50-Aurora B” value (“Selectivity” for short) worked out at 49.6.
As for `CCOc1ccc2c(Oc3ccc4c(C(=O)Nc5ccc(F)c(F)c5N)cccc4c3)ccnc2c1` [Compound I-6], on Aurora B kinase, the negative logarithm of the IC50 (pIC50) is 8.50. Besides, the “Selectivity” value on VEGFR2 is recorded as 18.64.
`CC(C)Oc1ccc2c(Oc3ccc4c(C(=O)Nc5ccccc5N)cccc4c3)ccnc2c1` [Compound I-7] gave a negative-log IC50 (pIC50) on Aurora B kinase of 6.38. Besides, the “Selectivity” value at VEGFR2 is listed as 0.17.
The matching figures for `COc1ccc2c(Oc3ccc4c(C(=O)Nc5cc(F)c(F)c(F)c5N)cccc4c3)ccnc2c1` [Compound I-10]: 8.45 and 13.34.
The like results for `CCCOc1ccc2c(Oc3ccc4c(C(=O)Nc5ccccc5N)cccc4c3)ccnc2c1` [Compound I-11] were, in that order, 7.47 and 0.78.
The like results for `CCCOc1ccc2c(Oc3ccc4c(C(=O)Nc5ccc(F)cc5N)cccc4c3)ccnc2c1` [Compound I-12] were, in that order, 7.72 and 5.12.
As for `CCCCOc1ccc2c(Oc3ccc4c(C(=O)Nc5ccccc5N)cccc4c3)ccnc2c1` [Compound I-13], at Aurora B kinase, the negative-log IC50 (pIC50) is 6.90. Also, at VEGFR2, the “Selectivity” value is recorded as 0.27.
The matching figures for `CCCCOc1ccc2c(Oc3ccc4c(C(=O)Nc5ccc(C)cc5N)cccc4c3)ccnc2c1` [Compound I-14]: 7.28 and 18.84.
Turning to `CCOc1ccc2c(Oc3ccc4c(C(=O)Nc5cc(F)ccc5N)cccc4c3)ccnc2c1` [Compound I-15], the Kp at 4 h in data set [1] came out at 0.76.
On to `CCOc1cc(F)c2c(Oc3ccc4c(C(=O)Nc5ccccc5N)cccc4c3)ccnc2c1` [Compound I-17], for which the Kp at 4 h in data set [1] came to 0.6. For the same molecule, the negative logarithm of the IC50 (pIC50) at Aurora B kinase was 8.40. Besides, the “Selectivity” value at VEGFR2 was found to be 8.16.
Molecule `CCOc1cc(F)c2c(Oc3ccc4c(C(=O)Nc5cccc(F)c5N)cccc4c3)ccnc2c1` [Compound I-18] gave a pIC50 on Aurora B kinase of 8.16. In addition, at VEGFR2, the “Selectivity” value stood at 9.75.
The matching figures for `CCOc1cc(F)c2c(Oc3ccc4c(C(=O)Nc5ccc(F)c(F)c5N)cccc4c3)ccnc2c1` [Compound I-19]: 8.25 and 9.08.
For `CCOc1cc(F)c2c(Oc3ccc4c(C(=O)Nc5cc(F)ccc5N)cccc4c3)ccnc2c1` [Compound I-20], in data set [1], the Kp at 4 h was 0.67.
Regarding `O=C(NC1CC(F)(F)C1)c1cccc2cc(Oc3ccnc4cc(OCCOC(F)F)ccc34)ccc12` [Compound I-21], the pIC50 at Aurora B kinase was 8.67. The “Selectivity” value on VEGFR2 came to 12.27.
With `COCCOc1ccc2c(Oc3ccc4c(C(=O)NC5CC(F)(F)C5)cccc4c3)ccnc2c1` [Compound I-23], the pIC50 on Aurora B kinase is 8.91. Further, the “Selectivity” value on VEGFR2 turned out to be 9.49.
`COCCOc1ccc2c(Oc3ccc4c(C(=O)NC5CC6(COC6)C5)cccc4c3)ccnc2c1` [Compound I-24] showed a pIC50 against Aurora B kinase of 8.77. In addition, the “Selectivity” value on VEGFR2 came out at 109.61.
Molecule `COCCOc1ccc2c(Oc3ccc4c(C(=O)NC5CC6(CCC6)C5)cccc4c3)ccnc2c1` [Compound I-25] gave a pIC50 against Aurora B kinase of 8.81. The “Selectivity” value at VEGFR2 is 38.05.
With `COCCOc1ccc2c(Oc3ccc4c(C(=O)NC5CC(F)C5)cccc4c3)ccnc2c1` (stereo not drawn) [Compound I-27], the negative-log IC50 (pIC50) against Aurora B kinase was 9.05. In addition, the “Selectivity” value at VEGFR2 turned out to be 10.23.
In the case of `Nc1c(F)cccc1NC(=O)c1cccc2cc(Oc3ccnc4cc(OCCOC(F)F)cc(F)c34)ccc12` [Compound I-28], the pIC50 against Aurora B kinase was 8.39. The “Selectivity” value on VEGFR2 is listed as 9.68.
The matching figures for `Nc1c(NC(=O)c2cccc3cc(Oc4ccnc5cc(OCCF)ccc45)ccc23)ccc(F)c1F` [Compound I-32]: 8.70 and 8.07.
Turning to `O=C(NC1CC(F)(F)C1)c1cccc2cc(Oc3ccnc4cc(OCCF)ccc34)ccc12` [Compound I-33], the negative logarithm of the IC50 (pIC50) on Aurora B kinase was 8.58. In addition, at VEGFR2, the “Selectivity” value is given as 376.79.
The molecule `O=C(NC1CCCCC1)c1cccc2cc(Oc3ccnc4cc(OCCF)ccc34)ccc12` [Compound I-35] gave a pIC50 at Aurora B kinase of 8.28. In addition, on VEGFR2, the “Selectivity” value came out at 9.55.
The like results for `COc1cc(F)c2c(Oc3ccc4c(C(=O)Nc5ccc(F)c(Cl)c5N)cccc4c3)ccnc2c1` [Compound I-36] were, in that order, 8.53 and 7.75.
Turning to `COc1cc(F)c2c(Oc3ccc4c(C(=O)Nc5ccc(F)c(F)c5N)cccc4c3)ccnc2c1` [Compound I-37], in data set [1], the Kp at 4 h worked out at 0.6. In the data set on Molt-4 cells (dose 1 μM), the “Apoptosis (%) DNA < 2N” value came out at 22.55 ± 0.21%, the “Polyploid (%) DNA > 4N” value is given as 55.25 ± 5.02%, the “Tetraploid (%) DNA = 4N” value is given as 4.68 ± 3.46% and the “Total (apoptosis + tetraploid + polyploid)” value turned out to be 82.48. Also, in the data set with Molt-4 cells (dose 3 μM), the “Apoptosis (%) DNA < 2N” value is 23.75 ± 2.33%, the “Polyploid (%) DNA > 4N” value is reported as 53.75 ± 4.17%, the “Tetraploid (%) DNA = 4N” value stood at 5.75 ± 3.15% and the “Total (apoptosis + tetraploid + polyploid)” value was 83.25. At Aurora B kinase, the pIC50 was 8.58. The “Selectivity” value on VEGFR2 turned out to be 14.19.
Molecule `O=C(NC1CC(F)(F)C1)c1cccc2cc(Oc3ccnc4cc(OCC(F)F)ccc34)ccc12` [Compound I-41] showed a pIC50 against Aurora B kinase of 8.65. The “Selectivity” value on VEGFR2 is 127.51.
Regarding `CN(C)CCOc1ccc2c(Oc3ccc4c(C(=O)NC5CC(F)(F)C5)cccc4c3)ccnc2c1` [Compound I-42], the negative-log IC50 (pIC50) on Aurora B kinase is 8.41. In addition, the “Selectivity” value on VEGFR2 is 13.9.
The like results for `CCOc1ccc2c(Oc3ccc4c(C(=O)Nc5cc(F)c(F)c(F)c5N)cccc4c3)ccnc2c1` [Compound I-44] were, in that order, 8.17 and 12.14.
